Experiments:
Mongrel dogs [1] = test: Acute cardiac infarction model: LDA ligature and reperfusion in dogs; format: in vivo; conditions: dog, hydrochloride 1 mg/kg/hr intravenous drip, versus control group
Procedure: Mongrel dogs (body weight: 8 to 20 kg) under anesthesia were ventilated artificially and underwent a left thracotomy. […] A polyethylene cannula was inserted into the femoral artery, and the blood pressure and heart rate were recorded A cannula was inserted into the […] of a drug and also into the carotid artery from which a blood sample was to be taken. After stabilization period of the test preparation, LDA was ligated with a clamp. After 2 hours from the ligature, the clamp was released for reperfusion. After observation for the following 4 hours, the heart was excised. […] Then, the heart was washed and sliced at 1 cm intervals from the apex in the direction vertical to the longer axis. Each slice at the left ventricle was divided into a part which was in risk of cardiac infarction indicated by Evans' Blue stain (hereinafter referred to as risk area) and a normal area, and each area was weighed. The weight of the left ventricle (the sum of the risk area and the normal area) and that of the risk area of each slice were individually added up to obtain the weight of the whole left ventricle and the total weight of the risk area. Further, of each slice, the area of the risk area which was not stained with Evans' Blue and that of a cardiac infarction area within the risk area which remained white, i.e., which was stained neither in blue with Evans' Blue nor in red with triphenyltetrazolium chloride, were measured to obtain a ratio of cardiac infarction part to the whole left ventricle (infarction size). […] The experiment was conducted for the following groups.

Mongrel dogs [2] = test: Angina pectoris model: partial LDA occlusion with cyclic coronary flow reduction in dogs; format: in vivo; conditions: dog, maleate 0.1 mg/kg i.v., compared with before administration
Procedure: Mongrel dogs (body weight: 8 to 20 kg) under anesthesia with pentobarbital (30 mg/kg, i.v.) were ventilated artificially and underwent a left thoracotomy. LDA was separated from connected tissues. A silicone tube for partial occlusion was placed around the LDA, and a probe for blood flow rate measurement was fixed in the neighborhood. The blood flow rate was measured with a pulse Doppler blood flow meter. A cannula was inserted into a branch distal to the occlusion site of the left coronary artery, and the coronary blood pressure was measured. A polyethylene cannula was inserted into the femoral artery, and the systemic blood pressure and heart rate were recorded. A cannula was inserted to the femoral vein for administration of a drug.
The effect of the drug was expressed in terms of frequency of the periodic reduction of blood flow rate.

Serotonin 2-Receptor = biological target: T1, Serotonin 2-Receptor (Rattus norvegicus, UniProt P14842); test: Binding activity to serotonin 2-receptor, 3H-Ketanserin, rat frontal cortex membrane preparation; conditions: calculated from the 50% inhibitory concentration, hydrochloride, read-out: dissociation constant for serotonin 2-receptor
T1 construct: from tissue; host or cells: intact anesthetized SD-SLC male rat (vascular response)
Procedure: A male SD rat was decapitated under anesthesia, and the frontal cortex was removed to obtain a membrane preparation. ^3 H-Ketanserin and Methysergide were used as a labelled ligand and a non-specific binding reagent, respectively. These reagents and a test compound thereof were dissolved in a 5% methanol tris-buffer solution. After incubation, this solution was filtered by suction through a GF/B glass filter. Radioactivity of ^3 H-Ketanserin collected on the filter was measured with a liquid scintillation counter. A Scatchard plot was prepared from the resulting radioactivity values, and a dissociation constant of serotonin 2-receptor and a receptor density of the membrane preparation were obtained. Further, from the receptor-binding inhibition curve of the compound is obtained a 50% inhibitory concentration, and a dissociation constant indicative of the binding affinity to serotonin 2-receptor was calculated.

T1 sequence (P14842 whole entry): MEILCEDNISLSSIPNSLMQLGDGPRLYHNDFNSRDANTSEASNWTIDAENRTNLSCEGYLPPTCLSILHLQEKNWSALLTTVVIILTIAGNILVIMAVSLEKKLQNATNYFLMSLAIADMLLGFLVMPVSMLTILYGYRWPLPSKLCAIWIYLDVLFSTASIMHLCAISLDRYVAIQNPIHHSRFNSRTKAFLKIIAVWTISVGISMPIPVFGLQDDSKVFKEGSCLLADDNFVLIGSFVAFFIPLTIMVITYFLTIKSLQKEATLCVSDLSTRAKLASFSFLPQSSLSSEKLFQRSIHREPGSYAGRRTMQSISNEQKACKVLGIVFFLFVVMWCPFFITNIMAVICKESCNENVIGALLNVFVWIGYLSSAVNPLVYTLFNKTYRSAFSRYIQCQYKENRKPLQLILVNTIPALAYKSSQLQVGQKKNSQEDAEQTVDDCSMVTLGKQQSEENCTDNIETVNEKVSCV

## O=C(c1ccc(F)cc1)C1CCN(CCn2c(=O)nc3n(c2=O)CCCC3)CC1 [Example 1, 3-[2-[4-(4-Fluorobenzoyl)piperidin-1-yl]ethyl]-6,7,8,9-tetrahydro-2H-pyrido[1,2-a]-1,3,5-triazine-2,4(3H)-dione]
Mongrel dogs [1]
  effect on myocardial infarction size (in words): significantly reduced
Mongrel dogs [2]
  effect on frequency of the cyclic coronary flow reduction (in words): significantly reduces
Serotonin 2-Receptor
  Ki: 15 nM
